# ChEMBL document CHEMBL1136569, “Quinolone-based IMPDH inhibitors: introduction of basic residues on ring D and SAR of the corresponding mono, di and benzofused analogues” (Bioorg Med Chem Lett, 2003)
# Columns and labels:
# [1] = molecular target: Inosine-5'-monophosphate dehydrogenase 2 (Homo sapiens, UniProt P12268); experiment: Inhibitory activity against inosine monophosphate dehydrogenase IMPDH II
# [2] = test system: CCRF-CEM; experiment: Inhibitory activity against proliferation of CEM cell line; assay type: functional, cell-based, Homo sapiens
# [3] = Inhibitory activity against proliferation of peripheral blood mononuclear cells; assay type: functional, Homo sapiens
Compound,IC50 [1] [nM],"IC50 ([2]; Homo sapiens, CCRF-CEM) [nM]",IC50 [3] [nM],IC50 ([2]; ccrf-cem) [nM],IC50 ([3]; Homo sapiens) [nM]
COc1cc2nc(-c3cccc(N4CCN(C)CC4)c3)cc(O)c2cc1-c1cnco1,16,1700,–,–,–
COc1cc2nc(-c3ccc(N4CCOCC4)cc3)cc(O)c2cc1-c1cnco1,21,1100,–,–,–
COc1cc2nc(-c3ccc4c(c3)CCC4N(C)C)cc(O)c2cc1-c1cnco1 (stereo not given),55,4100,–,–,–
COc1cc2nc(-c3cccc(N4CCOCC4)c3)cc(O)c2cc1-c1cnco1,< 50,–,–,–,–
COc1cc2nc(-c3ccc(OC)c(N4CCN(C)CC4)c3)cc(O)c2cc1-c1cnco1,140,10000,–,–,–
COc1cc2nc(-c3ccc(N4CCN(C)CC4)cc3)cc(O)c2cc1-c1cnco1,53,2200,–,–,–
COc1cc2nc(-c3ccc4c(c3)C(N3CCC3)CC4)cc(O)c2cc1-c1cnco1 (stereo not given),6,800,–,–,–
COc1cc2nc(-c3ccc4c(c3)C(N3CCCC3)CCO4)cc(O)c2cc1-c1cnco1 (stereo not given),33,1400,–,–,–
COc1cc2nc(-c3ccc4c(c3)C(O)CC4)cc(O)c2cc1-c1cnco1 (stereo not given),28,3100,–,–,–
COc1cc2nc(-c3ccc4c(c3)C(N3CCCC3)CC4)cc(O)c2cc1-c1cnco1 (stereo not given),13,670,–,–,–
COc1cc2nc(-c3ccc4c(c3)C(N3CCOCC3)CC4)cc(O)c2cc1-c1cnco1 (stereo not given),20,1100,–,–,–
COc1cc2nc(-c3ccc(C)c(N4CCN(C)CC4)c3)cc(O)c2cc1-c1cnco1,26,1100,–,–,–
COc1cc2nc(-c3ccc(C)c(OCCN4CCOCC4)c3)cc(O)c2cc1-c1cnco1,< 5,600,–,–,–
COc1cc2nc(-c3ccc4c(c3)C(N(C)C(C)=O)CC4)cc(O)c2cc1-c1cnco1 (stereo not given),18,1100,–,–,–
COc1cc2nc(-c3ccc4c(c3)C(N(C)C(=O)Cn3ccnc3)CC4)cc(O)c2cc1-c1cnco1 (stereo not given),68,> 10000,–,–,–
COc1cc2nc(-c3cccc(N4CCCC4)c3)cc(O)c2cc1-c1cnco1,25,2700,–,–,–
COc1cc2nc(-c3ccc4c(c3)C(O)CCC4)cc(O)c2cc1-c1cnco1 (stereo not given),83,3400,–,–,–
COc1cc2nc(-c3ccc4c(c3)C(N(C)C)CCO4)cc(O)c2cc1-c1cnco1 (stereo not given),21,720,–,–,–

Compound,IC50 [1] [nM],"IC50 ([2]; Homo sapiens, CCRF-CEM) [nM]",IC50 [3] [nM],IC50 ([2]; ccrf-cem) [nM],IC50 ([3]; Homo sapiens) [nM]
COc1cc2nc(-c3ccc(C)c(N4CCOCC4)c3)cc(O)c2cc1-c1cnco1,5,650,–,–,–
COc1cc2nc(-c3ccc4c(c3)CN(C)C4)cc(O)c2cc1-c1cnco1,14,1100,–,–,–
COc1cc2nc(-c3ccc4c(c3)C(N(C)C(=O)CN3CCOCC3)CC4)cc(O)c2cc1-c1cnco1 (stereo not given),18,1800,–,–,–
COc1cc2nc(-c3ccc4c(c3)C([N+](C)(C)C)CC4)cc(O)c2cc1-c1cnco1 (stereo not given),30,> 10000,–,–,–
COCC(=O)N(C)C1CCc2ccc(-c3cc(O)c4cc(-c5cnco5)c(OC)cc4n3)cc21 (stereo not given),12,1100,–,–,–
COc1cc2nc(-c3ccc4c(c3)C(=O)CCC4)cc(O)c2cc1-c1cnco1,< 10,520,–,–,–
COc1cc2nc(-c3ccc(C)c(OCC4CCCO4)c3)cc(O)c2cc1-c1cnco1 (stereo not given),< 5,710,–,–,–
COc1cc2nc(-c3ccc4c(c3)C(N(C)C)CCC4)cc(O)c2cc1-c1cnco1 (stereo not given),15,370,–,–,–
CNC1CCc2ccc(-c3cc(O)c4cc(-c5cnco5)c(OC)cc4n3)cc21 (stereo not given),12,1600,–,–,–
COc1cc2nc(-c3ccc4c(c3)N(C(C)=O)CCO4)cc(O)c2cc1-c1cnco1,14,1300,–,–,–
COc1cc2nc(-c3ccc(C)c(N4CCCC4)c3)cc(O)c2cc1-c1cnco1,15,780,–,–,–
COc1cc2nc(-c3ccc4c(c3)C(OC(=O)N(C)C)CC4)cc(O)c2cc1-c1cnco1 (stereo not given),11,–,–,–,–
COc1cc2nc(-c3ccc4c(c3)[C@@H](N(C)C)[C@H](OC)C4)cc(O)c2cc1-c1cnco1,15,700,–,–,–
"COc1cc2nc(-c3ccc4c(c3)C(N(C)C)CC4)cc(O)c2cc1-c1cnco1 (single isomer, unassigned; Enantiomer A)",< 5,–,120,270,–
"COc1cc2nc(-c3ccc4c(c3)C(N(C)C)CC4)cc(O)c2cc1-c1cnco1 (single isomer, unassigned; enantiomer B)",< 5,–,320,550,–
COc1cc2nc(-c3ccc4c(c3)C(N(C)C)CC4)cc(O)c2cc1-c1cnco1 (stereo in doubt; 27),6,–,–,290,–
COc1cc(NC(=O)Nc2cccc(CNC(=O)O[C@H]3CCOC3)c2)ccc1-c1cnco1 [MERIMEPODIB],–,–,–,–,170
COc1c(C)c2c(c(O)c1C/C=C(\C)CCC(=O)O)C(=O)OC2 [MYCOPHENOLIC ACID],–,–,–,–,600
